Results reported in patent publication US20180104269A1, “COMPOSITION FOR SUPPRESSING MUSCULAR FATTY CHANGE” (SUNTORY HOLDINGS LIMITED, priority 2015, published 2018).
pIC50: −log10 of the molar value.

Experiments:
[1] = test system: myosatellite cells derived from a rat; test: Oil red-O staining of oil droplets / count of adipocyte-like cells after adipogenic differentiation culture; type: cell-based
Description: (§1) The gastrocnemial muscle, the soleus, the anterior tibial muscle, the extensor digitorum longus muscle, and the quadriceps femoris muscle were extracted from the Fischer 344 rat of 10 to 14 weeks old under anesthesia, and minced. The above tissues were subjected to enzymolysis with Protease (Sigma-Aldrich) and subjected to centrifugal treatment to obtain a precipitate. The obtained precipitate was suspended in Dulbecco's Modified Eagle Medium (DMEM) containing 10% horse fetus serum, and seeded on an 8-well slide glass (BD Thermo Science) so that the myosatellite cells are 5×10^4 to 7×10^4 cells/mL.
(§2) Myosatellite cells isolated by F-10 containing 20% cow serum (GIBCO) was cultured for 72 h. Then, the cells were cultured for 72 h. in an adipogenic induction medium (Lonza) containing 0.1% DMSO (Control), 5 μM quercetin, 10 μM quercetin or 50 μM quercetin. Then, the cells were cultured for 72 h. in an adipogenic maintenance medium (Lonza) containing the control, 5 μM quercetin, 10 μM quercetin or 50 μM quercetin.
After the cultured cells were washed in PBS, they were fixed by 10% formalin (Wako Pure Chemical Industries, Ltd.) at room temperature for 10 min. Then, they were reacted with 10% oil red-O solution (Sigma Aldrich) that was dissolved in 2-propanol at room temperature for 30 min.

[2] = target: T1, PPARγ (Homo sapiens, UniProt P37231); details: read-out: IC50 as PPARγ inhibitor; cited from earlier work
T1 sequence (P37231 1-505): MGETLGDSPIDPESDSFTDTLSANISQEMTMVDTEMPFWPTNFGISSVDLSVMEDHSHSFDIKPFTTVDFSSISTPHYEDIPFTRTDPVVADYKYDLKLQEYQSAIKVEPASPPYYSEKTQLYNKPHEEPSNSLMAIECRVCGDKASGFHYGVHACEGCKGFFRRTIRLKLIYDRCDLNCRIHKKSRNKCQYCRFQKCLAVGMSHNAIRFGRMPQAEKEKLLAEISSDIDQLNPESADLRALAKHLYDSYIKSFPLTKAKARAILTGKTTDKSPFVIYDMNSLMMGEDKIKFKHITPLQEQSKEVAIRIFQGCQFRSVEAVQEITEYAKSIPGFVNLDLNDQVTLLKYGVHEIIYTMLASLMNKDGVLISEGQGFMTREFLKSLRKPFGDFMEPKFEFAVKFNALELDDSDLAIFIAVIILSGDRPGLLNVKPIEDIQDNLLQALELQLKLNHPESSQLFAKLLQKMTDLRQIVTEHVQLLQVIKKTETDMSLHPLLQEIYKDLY

[3] = cited from earlier work
[4] = test system: myosatellite cells derived from a rat; test: Quantification of amount of triglyceride in cells after adipogenic differentiation culture; type: cell-based; details: 5, 10, 50 μM vs 0 μM
Description: as §1, §2
After the cells that were subjected to adipogenic differentiation culture were washed with PBS, a PBS that contains 5% Triton-X 100 was added as a cell lysate, and the cell solution was collected, heated and cooled. After the cells were centrifuged, triglyceride and protein in the supernatant were quantified. The LabAssay™ Triglyceride (Wako Pure Chemical Industries, Ltd.) was used for the quantification of triglyceride. The Pierce BCA Protein Assay Kit (Thermo Scientific) was used for the quantification of protein. […] The results were tested using the Dunnett's test, and the value of 5% or lower was determined to be the significant amount (*: p<0.05 vs 0 μM. †: p<0.05 vs 5 μM).

[5] = 5 μM, 72 h adipogenic induction medium then 72 h adipogenic maintenance medium, vs control (0.1% DMSO)
[6] = 10 μM, 72 h induction then 72 h maintenance medium
[7] = 50 μM, 72 h induction then 72 h maintenance medium

Row | SMILES | number of adipocyte-like cells stained by oil red-O ([1]; 1 μM, 72 h induction then 72 h maintenance medium) | number of adipocyte-like cells stained by oil red-O [1, 5] | number of adipocyte-like cells stained by oil red-O [1, 6] | pIC50 [2] | oil droplets stained by oil red-O [1, 5] | number of oil droplets stained by oil red-O [1, 6] | number of adipocyte-like cells stained by oil red-O [1, 7] | number of oil droplets stained by oil red-O [1, 7] | solubility in water [3] | amount of protein in the cells in the well [4] | amount of triglyceride corrected by the amount of protein [4] | amount of triglyceride in cells after adipogenic differentiation ([4]; Dunnett's test)
1 | O=C(Nc1ccccc1)c1cc([N+](=O)[O-])ccc1Cl [GW9662, reference compound] | did not decrease | did not decrease | did not decrease | 8.48 |  |  |  |  |  |  |  | 
2 | O=c1c(O)c(-c2ccc(O)c(O)c2)oc2cc(O)cc(O)c12 [quercetin] |  | no significant decrease | decreased |  | the same level of oil droplets as the control | decreased in a concentration dependent manner | decreased | decreased in a concentration dependent manner | insoluble to water | did not change | decreased in a quercetin concentration dependent manner | decreased in a quercetin-concentration dependent manner
